In patent US20230279025A1, “KRAS G12D INHIBITORS” (Mirati Therapeutics, Inc., priority 2020, published 2023):
Read-outs that look alike come from different tables or passages of the source.

How the values were obtained:
[1] = target: T1, KRas G12D (Homo sapiens (Human), UniProt P01116, G12D); test: KRas G12D Binding Assay (TR-FRET displacement of Cy5 labelled tracer); conditions: GDP-loaded KRAS G12D (amino acids 1:169), 60 minute incubation at 22° C.
Method: After a 60 minute incubation at 22° C., the reaction was measured using a PerkinElmer EnVision multimode plate reader via TR-FRET dual wavelength detection, and the percent of control (POC) calculated using a ratiometric emission factor. […] The POC values were fit to a 4-parameter logistic curve and the IC50 value was determined as the concentration where the curve crosses 50 POC.
ND stands for “not determined.”
Target sequence in this assay (P01116 other isoform, or with tags, fused parts or gaps G12D): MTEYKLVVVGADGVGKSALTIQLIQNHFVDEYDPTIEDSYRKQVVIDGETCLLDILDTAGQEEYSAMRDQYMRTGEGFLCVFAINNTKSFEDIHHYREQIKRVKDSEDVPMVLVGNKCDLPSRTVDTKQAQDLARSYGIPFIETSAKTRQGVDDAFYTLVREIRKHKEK

[2] = tested on: KRas G12D-mediated phosphorylation of ERK in AGS cells (ATCC CRL-1739) expressing G12D; test: Inhibition of KRas G12D-mediated Phosphorylation of ERK in AGS cells; format: cell-based; conditions: Homo sapiens
Method: Cells were plated in tissue culture treated 96 well plates at a density of 40,000 cells/well and allowed to attach for 12-14 hours. Diluted compounds were then added in a final concentration of 0.5% DMSO. After 3 hours, the medium was removed, 150 μL of 4.0% formaldehyde was added and the plates incubated at room temperature for 20 minutes. The plates were washed with PBS, and permeabilized with 150 μL of ice cold 100% methanol for 10 minutes. Non-specific antibody binding to the plates was blocked using […] Licor blocking buffer (Li-Cor Biotechnology, Lincoln Nebr.) for 1 hour at room temperature.
The amount of phospho-ERK was determined using an antibody specific for the phosphorylated form of ERK and compared to the amount of GAPDH. Primary antibodies used for the detection were added as follows: Phospho-ERK(Cell Signaling cs-9101) diluted 1:500 and GAPDH(Millipore MAB374) diluted 1:5000 in Licor block+0.05% Tween 20. The plates were incubated for 2 hours at room temperature. The plates were washed with PBS+0.05% Tween 20.
Secondary antibodies used to visualize primary antibodies were added as follows: Anti-rabbit-680 diluted 1:1000 and Anti-mouse-800 diluted 1:1000 both in Licor block+0.05% TweeN20, and were incubated for 1 hour at room temperature. The plates were washed with PBS +0.05% Tween 20. A 100 μL aliquot of PBS was added to each well and the plates were read on a Li-Cor Odyssey CLX plate reader.

[3] = target: T1, KRas G12D; test: KRas G12D Surface Plasmon Resonance (SPR) Binding Assay; conditions: Biacore T200, immobilized biotinylated KRAS protein, 1:1 binding model
Target sequence in this assay (P01116-2 other isoform, or with tags, fused parts or gaps G12D): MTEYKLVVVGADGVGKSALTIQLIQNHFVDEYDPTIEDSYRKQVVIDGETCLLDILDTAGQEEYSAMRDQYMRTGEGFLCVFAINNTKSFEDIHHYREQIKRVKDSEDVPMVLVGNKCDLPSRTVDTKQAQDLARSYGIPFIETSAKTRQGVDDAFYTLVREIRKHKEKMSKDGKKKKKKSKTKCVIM

[4] = phospho-ERK(Thr202/Tyr204) normalized to GAPDH, AGS cells, 3 hours, read-out: IC50

SMILES | IC50 [1] [nM] | IC50 ([2]; AGS, 3 h) [nM] | IC50 [2, 4] [nM] | Kd [3] [nM]
CN1C[C@H](Oc2cccc(S(=O)(=O)F)c2)C[C@H]1COc1nc(N2C[C@H]3CC[C@@H](C2)N3)c2cnc(-c3cccc4cccc(Cl)c34)c(F)c2n1 [Example 208, 3-(((3R,5S)-5-(((4-((1R,5S)-3,8-diazabicyclo[3.2.1]octan-3-yl)-7-(8-chloronaphthalen-1-yl)-8-fluoropyrido[4,3-d]pyrimidin-2-yl)oxy)methyl)-1-methylpyrrolidin-3-yl)oxy)benzenesulfonyl fluoride tris 2,2,2-trifluoroacetate] | 1840 | > 16700 |  | 
C#Cc1c(F)ccc2cc(O)cc(-c3ncc4c(N5C[C@H]6CC[C@@H](C5)N6)nc(OC[C@]56CCCN5C[C@@H](F)C6)nc4c3F)c12 [Example 482, 4-(4-((1R,5S)-3,8-diazabicyclo[3.2.1]octan-3-yl)-8-fluoro-2-(((2S,7aR)-2-fluorohexahydro-1H-pyrrolizin-7a-yl)methoxy)pyrido[4,3-d]pyrimidin-7-yl)-5-ethynyl-6-fluoronaphthalen-2-ol] |  |  | 3.4 | 
Oc1cc(-c2ncc3c(N4C[C@H]5CC[C@@H](C4)N5)nc(OCCCN4C[C@@H]5C[C@H]4CO5)nc3c2F)c2ccccc2c1 [Example 24, 4-(2-(3-((1S,4S)-2-oxa-5-azabicyclo[2.2.1]heptan-5-yl)propoxy)-4-((1R,5S)-3,8-diazabicyclo[3.2.1]octan-3-yl)-8-fluoropyrido[4,3-d]pyrimidin-7-yl)naphthalen-2-ol] | 7.9 |  | 2890 | 5
CCc1cccc2cccc(-c3ncc4c(N5CC6CCC(C5)N6)nc(OC[C@]56CCCN5[C@@H](COC(=O)NC)CC6)nc4c3F)c12 (single isomer, unassigned) [Example 432] | 1.9 |  | 106 | 
Fc1c(-c2cccc3cccc(Cl)c23)ncc2c(N3C[C@H]4CC[C@@H](C3)N4)nc(OCCCN3C[C@@H]4C[C@H]3CO4)nc12 [Example 103, (1S,4S)-5-(3-((4-((1R,5S)-3,8-diazabicyclo[3.2.1]octan-3-yl)-7-(8-chloronaphthalen-1-yl)-8-fluoropyrido[4,3-d]pyrimidin-2-yl)oxy)propyl)-2-oxa-5-azabicyclo[2.2.1]heptane] |  |  | > 16700 | 
C#Cc1c(F)ccc2cc(O)cc(-c3ncc4c(N5C[C@H]6CC[C@@H](C5)N6)nc(OC[C@@]56CCCCN5C[C@H](F)C6)nc4c3F)c12 [Example 469, 4-(4-((1R,5S)-3,8-diazabicyclo[3.2.1]octan-3-yl)-8-fluoro-2-(((2R,8aS)-2-fluorooctahydroindolizin-8a-yl)methoxy)pyrido[4,3-d]pyrimidin-7-yl)-5-ethynyl-6-fluoronaphthalen-2-ol] | < 0.002 |  | 31.6 | 
CC(C)N1CCC[C@H]1COc1nc(N2C[C@H]3C[C@@H](O)[C@@H](C2)N3)c2cnc(-c3cccc4cccc(Cl)c34)c(F)c2n1 [Example 153, (1R,5R,6R)-3-(7-(8-chloronaphthalen-1-yl)-8-fluoro-2-(((S)-1-isopropylpyrrolidin-2-yl)methoxy)pyrido[4,3-d]pyrimidin-4-yl)-3,8-diazabicyclo[3.2.1]octan-6-ol] | 50.8 |  | 2370 | 70.5
CCc1cccc2cccc(-c3ncc4c(N5CC6CCC(C5)N6)nc(OC[C@]56CCCN5[C@@H](COC(=O)N5CCOCC5)CC6)nc4c3F)c12 (single isomer, unassigned) [Example 431] | 1.4 |  | 74.3 | 
Oc1cc(-c2ncc3c(N4C[C@H]5CC[C@@H](C4)N5)nc(OCCN4C[C@@H]5C[C@H]4CO5)nc3c2F)c2ccccc2c1 [Example 26, 4-(2-(2-((1S,4S)-2-oxa-5-azabicyclo[2.2.1]heptan-5-yl)ethoxy)-4-((1R,5S)-3,8-diazabicyclo[3.2.1]octan-3-yl)-8-fluoropyrido[4,3-d]pyrimidin-7-yl)naphthalen-2-ol] | 42.1 |  | 4280 | 27.9
O[C@@H]1C[C@@H]2CN(c3nc(OCC45CCCN4CCC5)nc4c(F)c(-c5cccc6cccc(Cl)c56)ncc34)C[C@H]1N2 [Example 49, (1R,5R,6R)-3-(7-(8-chloronaphthalen-1-yl)-8-fluoro-2-((tetrahydro-1H-pyrrolizin-7a(5H)-yl)methoxy)pyrido[4,3-d]pyrimidin-4-yl)-3,8-diazabicyclo[3.2.1]octan-6-ol] | 5.9 |  | 2120 | 0.4
Cc1cc2[nH]ncc2c(-c2ncc3c(N4C[C@H]5CC[C@@H](C4)N5)nc(OCC45CCCN4CC(F)C5)nc3c2F)c1Cl (mixture of isomers) [Example 376, 4-((1R,5S)-3,8-diazabicyclo[3.2.1]octan-3-yl)-7-(5-chloro-6-methyl-1H-indazol-4-yl)-8-fluoro-2-((2-fluorotetrahydro-1H-pyrrolizin-7a(5H)-yl)methoxy)pyrido[4,3-d]pyrimidine] |  |  | 582 | 
CCc1cccc2cc(O)cc(-c3ncc4c(N5C[C@H]6CC[C@@H](C5)N6)nc(OC[C@]56CCCN5C[C@@H](F)C6)nc4c3F)c12 [Example 468, 4-(4-((1R,5S)-3,8-diazabicyclo[3.2.1]octan-3-yl)-8-fluoro-2-(((2S,7aR)-2-fluorohexahydro-1H-pyrrolizin-7a-yl)methoxy)pyrido[4,3-d]pyrimidin-7-yl)-5-ethylnaphthalen-2-ol] | < 0.002 |  | 28.8 | 
CN1CC[C@H](Oc2cccc(S(=O)(=O)F)c2)[C@H]1COc1nc(N2C[C@H]3CC[C@@H](C2)N3)c2cnc(-c3cccc4cccc(Cl)c34)c(F)c2n1 [Example 210, 3-(((2R,3S)-2-(((4-((1R,5S)-3,8-diazabicyclo[3.2.1]octan-3-yl)-7-(8-chloronaphthalen-1-yl)-8-fluoropyrido[4,3-d]pyrimidin-2-yl)oxy)methyl)-1-methylpyrrolidin-3-yl)oxy)benzenesulfonyl fluoride tris(2,2,2-trifluoroacetate)] | 5460 | > 16700 |  | 
CN1CCC[C@H]1COc1nc(N2C[C@H]3CC[C@@H](C2)N3)c2cnc(-c3cccc4c3CCCC4)c(F)c2n1 [Example 21, 4-((1R,5S)-3,8-diazabicyclo[3.2.1]octan-3-yl)-8-fluoro-2-(((S)-1-methylpyrrolidin-2-yl)methoxy)-7-(5,6,7,8-tetrahydronaphthalen-1-yl)pyrido[4,3-d]pyrimidine] | 263 |  |  | 448
Oc1cc(-c2ncc3c(N4C[C@H]5CC[C@@H](C4)N5)nc(OCCc4ncccn4)nc3c2F)c2ccccc2c1 [Example 7, 4-(4-((1R,5S)-3,8-diazabicyclo[3.2.1]octan-3-yl)-8-fluoro-2-(2-(pyrimidin-2-yl)ethoxy)pyrido[4,3-d]pyrimidin-7-yl)naphthalen-2-ol] | 1870 |  |  | 464
CN1C[C@H](Oc2ccc(S(=O)(=O)F)cc2)C[C@H]1COc1nc(N2C[C@H]3CC[C@@H](C2)N3)c2cnc(-c3cccc4cccc(Cl)c34)c(F)c2n1 [Example 209, 4-(((3R,5S)-5-(((4-((1R,5S)-3,8-diazabicyclo[3.2.1]octan-3-yl)-7-(8-chloronaphthalen-1-yl)-8-fluoropyrido[4,3-d]pyrimidin-2-yl)oxy)methyl)-1-methylpyrrolidin-3-yl)oxy)benzenesulfonyl fluoride tris(2,2,2-trifluoroacetate)] | 2750 | > 16700 |  | 
OCC(CO)COc1nc(N2C[C@H]3CC[C@@H](C2)N3)c2cnc(-c3cccc4cccc(Cl)c34)c(F)c2n1 [Example 35, 2-(((4-((1R,5S)-3,8-diazabicyclo[3.2.1]octan-3-yl)-7-(8-chloronaphthalen-1-yl)-8-fluoropyrido[4,3-d]pyrimidin-2-yl)oxy)methyl)propane-1,3-diol] | 475 |  |  | 1380
CCC1(N)CN(c2nc(N3C[C@H]4CC[C@@H](C3)N4)c3cnc(-c4cc(O)cc5ccccc45)c(F)c3n2)C1 [Example 126, 4-(2-(3-amino-3-ethylazetidin-1-yl)-4-((1R,5S)-3,8-diazabicyclo[3.2.1]octan-3-yl)-8-fluoropyrido[4,3-d]pyrimidin-7-yl)naphthalen-2-ol] | 9.9 |  |  | 16.1
O[C@@H]1C[C@@H]2CN(c3nc(OC[C@@]45CCCN4C[C@H](F)C5)nc4c(F)c(-c5cccc6cccc(Cl)c56)ncc34)C[C@H]1N2 [Example 395, (1R,5R,6R)-3-(7-(8-chloronaphthalen-1-yl)-8-fluoro-2-((2-fluorotetrahydro-1H-pyrrolizin-7a(5H)-yl)methoxy)pyrido[4,3-d]pyrimidin-4-yl)-3,8-diazabicyclo[3.2.1]octan-6-ol] | 6.9 |  |  | 2.6
